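48-hour exposure; five concentrations; linearly interpolated endpoints. Abbreviation: GI50, concentration required for 50% inhibition of growth. The concentration for full growth arrest is given as TGI.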
Experiments:
Assay in all cases: growth of human tumour cells (NCI), 48 h
HL-60(TB) leukemia = tested on: HL-60(TB) leukemia
MALME-3M melanoma = tested on: MALME-3M melanoma
MOLT-4 leukemia = tested on: MOLT-4 leukemia
MDA-MB-435 = tested on: MDA-MB-435
HS 578T breast = tested on: HS 578T breast
NCI-H460 lung = tested on: NCI-H460 lung
OVCAR-4 ovarian = tested on: OVCAR-4 ovarian
RPMI-8226 leukemia = tested on: RPMI-8226 leukemia
SK-MEL-28 melanoma = tested on: SK-MEL-28 melanoma
BT-549 breast = tested on: BT-549 breast
PC-3 prostate = tested on: PC-3 prostate
A549 NSCLC = tested on: A549 NSCLC
A498 renal = tested on: A498 renal
SF-295 CNS = tested on: SF-295 CNS
SNB-19 CNS = tested on: SNB-19 CNS
SK-OV-3 ovarian = tested on: SK-OV-3 ovarian
UACC-62 melanoma = tested on: UACC-62 melanoma
COLO 205 colon = tested on: COLO 205 colon
HCC-2998 colon = tested on: HCC-2998 colon
SR leukemia = tested on: SR leukemia
786-0 renal = tested on: 786-0 renal
HOP-62 NSCLC = tested on: HOP-62 NSCLC
ACHN renal = tested on: ACHN renal
SF-268 CNS = tested on: SF-268 CNS
HT29 colon = tested on: HT29 colon
UO-31 renal = tested on: UO-31 renal
DU-145 prostate = tested on: DU-145 prostate
NCI/ADR-RES ovarian = tested on: NCI/ADR-RES ovarian
CAKI-1 renal = tested on: CAKI-1 renal
NCI-H226 lung = tested on: NCI-H226 lung
K-562 leukemia = tested on: K-562 leukemia
SK-MEL-5 melanoma = tested on: SK-MEL-5 melanoma
SK-MEL-2 melanoma = tested on: SK-MEL-2 melanoma
OVCAR-3 ovarian = tested on: OVCAR-3 ovarian
KM12 colon = tested on: KM12 colon
M14 melanoma = tested on: M14 melanoma
NCI-H23 lung = tested on: NCI-H23 lung
TK-10 renal = tested on: TK-10 renal
IGROV1 ovarian = tested on: IGROV1 ovarian
LOX IMVI melanoma = tested on: LOX IMVI melanoma
U251 CNS = tested on: U251 CNS
SW-620 colon = tested on: SW-620 colon
SF-539 CNS = tested on: SF-539 CNS
OVCAR-5 ovarian = tested on: OVCAR-5 ovarian
MDA-MB-231 breast = tested on: MDA-MB-231 breast
UACC-257 melanoma = tested on: UACC-257 melanoma
NCI-H522 lung = tested on: NCI-H522 lung
CCRF-CEM leukemia = tested on: CCRF-CEM leukemia
HCT-116 colon = tested on: HCT-116 colon
RXF 393 renal = tested on: RXF 393 renal
EKVX NSCLC = tested on: EKVX NSCLC
SNB-75 CNS = tested on: SNB-75 CNS
T-47D breast = tested on: T-47D breast
MCF7 breast = tested on: MCF7 breast
OVCAR-8 ovarian = tested on: OVCAR-8 ovarian
HOP-92 NSCLC = tested on: HOP-92 NSCLC
SN12C renal = tested on: SN12C renal
HCT-15 colon = tested on: HCT-15 colon

`Cc1cccc(N=C2c3cc([N+](=O)[O-])ccc3-c3c2cc([N+](=O)[O-])cc3[N+](=O)[O-])c1` gave a GI50 (HL-60(TB) leukemia) of 3.35 µM, a TGI (HL-60(TB) leukemia) of 13.1 µM and a GI50 (MALME-3M melanoma) of 4.82 µM. For the same molecule, the TGI (MALME-3M melanoma) was 21.2 µM, the GI50 (MOLT-4 leukemia) was 3.64 µM and the TGI (MOLT-4 leukemia) was greater than 100 µM. The GI50 (MDA-MB-435) was 3.49 µM, the TGI (MDA-MB-435) was 10.8 µM and the GI50 (HS 578T breast) was 11.3 µM. The TGI (HS 578T breast) was 53.9 µM, the GI50 (NCI-H460 lung) was 3.64 µM and the TGI (NCI-H460 lung) was 14.4 µM. The GI50 (OVCAR-4 ovarian) was 6.98 µM, the TGI (OVCAR-4 ovarian) was greater than 100 µM and the GI50 (RPMI-8226 leukemia) was 2.73 µM. It also gave a TGI (RPMI-8226 leukemia) of 10.7 µM, a GI50 (SK-MEL-28 melanoma) of 13.3 µM and a TGI (SK-MEL-28 melanoma) of 31.3 µM. It also gave a GI50 (BT-549 breast) of 3.45 µM, a TGI (BT-549 breast) of 11.2 µM and a GI50 (PC-3 prostate) of 5.02 µM. It also gave a TGI (PC-3 prostate) of 21.6 µM, a GI50 (A549 NSCLC) of 12.3 µM and a TGI (A549 NSCLC) of 32.9 µM. It also gave a GI50 (A498 renal) of 27.8 µM, a TGI (A498 renal) greater than 100 µM and a GI50 (SF-295 CNS) of 25.2 µM. For the same molecule, the TGI (SF-295 CNS) was greater than 100 µM, the GI50 (SNB-19 CNS) was 14.3 µM and the TGI (SNB-19 CNS) was 31.7 µM. For the same molecule, the GI50 (SK-OV-3 ovarian) was greater than 100 µM, the TGI (SK-OV-3 ovarian) was greater than 100 µM and the GI50 (UACC-62 melanoma) was 5.03 µM. It also gave a TGI (UACC-62 melanoma) of 20.2 µM, a GI50 (COLO 205 colon) of 3.34 µM and a TGI (COLO 205 colon) of 17.1 µM. It also gave a GI50 (HCC-2998 colon) of 6.45 µM, a TGI (HCC-2998 colon) of 18.7 µM and a GI50 (SR leukemia) of 1.94 µM. The TGI (SR leukemia) was 5.36 µM, the GI50 (786-0 renal) was 2.52 µM and the TGI (786-0 renal) was 5.65 µM. The GI50 (HOP-62 NSCLC) was 4.28 µM, the TGI (HOP-62 NSCLC) was 19.9 µM and the GI50 (ACHN renal) was 3.36 µM. It also gave a TGI (ACHN renal) of 11.5 µM, a GI50 (SF-268 CNS) of 6.33 µM and a TGI (SF-268 CNS) of 40.8 µM. The GI50 (HT29 colon) was 4.11 µM, the TGI (HT29 colon) was 27.6 µM and the GI50 (UO-31 renal) was 10.9 µM. The TGI (UO-31 renal) was 29.9 µM, the GI50 (DU-145 prostate) was 3.24 µM and the TGI (DU-145 prostate) was 11 µM. It also gave a GI50 (NCI/ADR-RES ovarian) of 12.5 µM, a TGI (NCI/ADR-RES ovarian) greater than 100 µM and a GI50 (CAKI-1 renal) of 15.5 µM. It also gave a TGI (CAKI-1 renal) of 77.9 µM, a GI50 (NCI-H226 lung) of 5.08 µM and a TGI (NCI-H226 lung) of 22.2 µM. The GI50 (K-562 leukemia) was 2.9 µM, the TGI (K-562 leukemia) was 10.5 µM and the GI50 (SK-MEL-5 melanoma) was 5.44 µM. It also gave a TGI (SK-MEL-5 melanoma) of 17.9 µM, a GI50 (SK-MEL-2 melanoma) of 7.39 µM and a TGI (SK-MEL-2 melanoma) of 32.1 µM. It also gave a GI50 (OVCAR-3 ovarian) of 2.95 µM, a GI50 (KM12 colon) of 5.06 µM and a TGI (KM12 colon) of 20 µM. For the same molecule, the GI50 (M14 melanoma) was 2.2 µM, the TGI (M14 melanoma) was 4.57 µM and the GI50 (NCI-H23 lung) was 5.33 µM. The TGI (NCI-H23 lung) was 27.6 µM, the GI50 (TK-10 renal) was 12.9 µM and the TGI (TK-10 renal) was greater than 100 µM. It also gave a GI50 (IGROV1 ovarian) of 5.89 µM, a TGI (IGROV1 ovarian) greater than 100 µM and a GI50 (LOX IMVI melanoma) of 1.57 µM. It also gave a TGI (LOX IMVI melanoma) of 2.93 µM, a GI50 (U251 CNS) of 2.57 µM and a TGI (U251 CNS) of 7.41 µM. The GI50 (SW-620 colon) was 2.01 µM, the TGI (SW-620 colon) was 3.76 µM and the GI50 (SF-539 CNS) was 17 µM. It also gave a TGI (SF-539 CNS) of 37.8 µM, a GI50 (OVCAR-5 ovarian) of 18.3 µM and a TGI (OVCAR-5 ovarian) of 40.2 µM. The GI50 (MDA-MB-231 breast) was 2.43 µM, the TGI (MDA-MB-231 breast) was 5 µM and the GI50 (UACC-257 melanoma) was 6.81 µM. It also gave a TGI (UACC-257 melanoma) of 34.5 µM, a GI50 (NCI-H522 lung) of 4.35 µM and a TGI (NCI-H522 lung) of 41.7 µM. The GI50 (CCRF-CEM leukemia) was 3.87 µM, the TGI (CCRF-CEM leukemia) was greater than 100 µM and the GI50 (HCT-116 colon) was 1.67 µM. The TGI (HCT-116 colon) was 3.37 µM, the GI50 (RXF 393 renal) was 2.28 µM and the TGI (RXF 393 renal) was 4.95 µM. For the same molecule, the GI50 (EKVX NSCLC) was 5.08 µM, the TGI (EKVX NSCLC) was 19.7 µM and the GI50 (SNB-75 CNS) was 4.59 µM. It also gave a TGI (SNB-75 CNS) of 42.4 µM, a GI50 (T-47D breast) of 1.99 µM and a TGI (T-47D breast) of 4.78 µM. It also gave a GI50 (MCF7 breast) of 6.27 µM, a TGI (MCF7 breast) of 28.2 µM and a GI50 (OVCAR-8 ovarian) of 5.88 µM. For the same molecule, the TGI (OVCAR-8 ovarian) was 94.1 µM, the GI50 (HOP-92 NSCLC) was 2.47 µM and the TGI (HOP-92 NSCLC) was 7.17 µM. It also gave a GI50 (SN12C renal) of 2.14 µM, a TGI (SN12C renal) of 4.8 µM and a GI50 (HCT-15 colon) of 2.8 µM. For the same molecule, the TGI (HCT-15 colon) was 10.7 µM.

Source: PubChem BioAssay (NCI)
